Consider one substance from patent US10407488B2, “Therapy for treatment or prevention of conditions associated with bleeding or hypocoagulation” (THE REGENTS OF THE UNIVERSITY OF CALIFORNIA, priority 2013, dated 2019).

Assay [1] relates to aPTT clotting time in human plasma. In words: aPTT clotting assay in human plasma with rhAPC. The class given is biochemical. Here is the method:
(§1) APC-mediated inactivation of FVa was analyzed in ETP assays and aPTT clotting assays. FVa mutants were incubated with equal volumes of either recombinant human APC (Xigris®) or buffer in human and murine Balb/c plasma.
(§2) Plasma (50 μL) was mixed with 50 μL of a PTT reagent (APTT-XL, Pacific Hemostasis) and incubated at 37° C. for 3 minutes in the presence of FVa either with recombinant human APC or buffer. Following addition of 25 μL of 50 mM CaCl2 in HBS, 0.5% BSA, the clotting time was recorded using an ST4 coagulometer (Diagnostica Stago).

The test system of a further assay is Balb/c mice. Description: Ex vivo whole blood aPTT after intravenous APC in Balb/c mice. The arrangement: species or system mouse. How it is done:
Recombinant murine APC was administered intravenously to Balb/c mice by tail vein injection 2 minutes prior to retroorbital blood harvest in siliconized microcapillaries (75 μL) prefilled with 20 μL Sodium-Citrate (3.8%). Whole blood aPTT was performed immediately, whereby 50 μL of blood were mixed with 50 μL of aPTT reagent (APTT-XL, Pacific Hemostasis) and incubated at 37° C. for 3 minutes in the presence of FVa or buffer. Following addition of 25 μL of 130 mM CaCl2 in HBS, 0.5% BSA, the clotting time was recorded using an ST4 coagulometer (Diagnostica Stago).

Assay [2] relates to thrombin generation in patient plasma. In words: Thrombin generation in plasma of inhibitor patients before and 5 minutes after rhFVIIa infusion, ^superFVa added ex vivo. The assay is classed as biochemical, human. An excerpt: Normal pooled human plasma and plasma from human FVIII-deficient patients with and without inhibitors (titer specified in Bethesda Units (BU)) was purchased from George King Bio-Medical (Overland Park, Kans., USA). In addition, plasma and clinical information was obtained from two patients with severe FVIII-deficiency (<1% intrinsic FVIII-activity levels) and inhibitors (titers determined in BU by the clinical laboratory using the Nijmegen assay (17) regularly visiting the Hemophilia Treatment Center at the University of California, San Diego (UCSD) after informed consent was obtained. Patient confidentiality safeguards, sample and data acquisition methods were approved by the UCSD Institutional Review Board. Blood was drawn into 3.8% sodium citrate (pH 5.5) at a 9:1 blood/anticoagulant volume ratio, and processed immediately. Plasma was collected and frozen at −80° C. after centrifugation at 2600×g for 15 minutes. The following reagents were used: Thrombin from Enzyme Research Laboratories (South Bend, Ind., USA), hirudin from Calbiochem (San Diego, Calif., USA), Corn trypsin inhibitor (CTI) from Enzyme Research Laboratories, thrombin calibrator from Synapse BV (distributed by Diagnostica Stago), Substrate Z-Gly-Gly-Arg-AMC from Bachem (Bubendorf Switzerland), recombinant human tissue factor (TF), Dade Innovin from Dade Behring (Newark, Del., USA), mouse anti-human FVIII (GMA8015) and isotype antibody (GMA650) from Green mountain antibodies (Burlington, Vt., USA), recombinant human FVIIa, NovoSeven®, from NovoNordisk (Bagsvaerd, Denmark), Phospholipid vesicles (80% phosphatidylcholine (PC), 20% phosphatidylserine (PS)) were purchased from Avanti Lipids (Alabaster, Ala., USA) and prepared as described (18).
Endogenous thrombin potential (ETP) assays were performed as described (19). Briefly, plasma samples supplemented with CTI, TF, PCPS vesicles and coagulation factors were preincubated with the plasma at 37° C. Thrombin generation was initiated by addition of CaCl2 and Z-Gly-Gly-Arg-AMC in HBS/0.5% BSA. The final reaction mixture contained, 50% plasma, 0.2 pM TF, […] PCPS vesicles, 0.725 μM CTI, 0.5 mM Z-GGR-AMC and 7.6 mM CaCl2 in a total volume of 100 μL. In some experiments, 1.25 μg/ml anti-FVIII antibody was added to the plasma and ETP was determined after 1 hour of preincubation. Fluorescence was measured at excitation/emission wavelengths of […] using Gemini EM fluorescent plate reader (Molecular Devices). Fluorescence time course data were converted to nM thrombin as described (20). ETP, defined as the area under the curve (AUC) and the peak height were determined using Origin or GraphPad Prism software.
This example relates to the experiments the results of which are contained in FIG. 5. […]

The subject of assay [3] is aPTT clotting time in murine plasma. In words: aPTT clotting assay in murine plasma with rhAPC. The class given is biochemical, mouse. The note with it: 5 U/mL FVa variants, APC, ~100 seconds without FVa. Here is the method:
as §1, §2

In assay [4] the test system is thrombin generation in murine Balb/c plasma with rhAPC. In words: Thrombin generation in murine Balb/c plasma in the presence of rhAPC. The class given is biochemical, mouse. How it is done: BU titer values for FVIII antibodies added to FVIII-deficient plasma were determined using a modified Nijmegen Bethesda assay (Barrow and Lollar; JTH 2006, 4:2223-2229). Briefly, antibody was serially diluted in HBS with 0.05% Tween 80 and mixed 1:1 with pooled normal plasma that was supplemented with 100 mM Imidazole, pH 7.0. Samples were incubated at 37° C. for 2 hours then assayed by aPTT with APTT XL reagent (Pacific Hemostasis). A standard curve was derived from a serial dilution of normal plasma into FVIII deficient plasma that was also mixed 1:1 with HBST and incubated at 37° C. for 2 hours. Percent FVIII activity was plotted versus mg/ml of antibody and residual activity of 50% was defined as 1 BU/ml. In addition, endogenous thrombin potential (ETP) assays were performed as described (3). Briefly FVa mutants or saline were added to human or murine plasma (George King Bio-Medical; mouse source, 50% v/v) supplemented with […] corn trypsin inhibitor (Haematologic Technologies), 10 mM CaCl2, 10 μM phospholipid vesicles (80% phosphatidylcholine, 20% phosphatidylserine, prepared as described (6), 0.2 pM soluble tissue factor (Innovin®, Dade Behring), and 0.4 mM Z-Gly-Gly-Arg-AMC (thrombin substrate, Bachem) in HBS. After mixing, 100 μL was transferred to a FluoroNunc microtiter plate at 37° C. to monitor fluorescence (excitation at 360 nm/emission at 460 nm; Gemini EM fluorescent plate reader (Molecular Devices)). Fluorescence time course data were converted to nM thrombin as described (7). ETP, defined as the area under the curve, was determined using Prism 5.04 (Graphpad).
as §1

[5] abbreviates: increasing ^superFVa added ex vivo, plasma before and 5 minutes after rhFVIIa infusion.

With “^superFVa: engineered APC-resistant FVa variant (SEQ ID NO:4): R306Q, R506Q, R679Q, Cys609-Cys1691 disulfide, S2183A, B-domain deleted”, the aPTT entry in assay [1] (0.05 U/mL FVa variants, 10 nM APC, human plasma, ~100 seconds without FVa) is reported as “fully corrected the aPTT”; in assay [3], “fully corrected the aPTT”. Moreover, the “lower concentration normalizing the aPTT compared to FVa” value in assay [1] (human plasma with APC) amounted to 100 fold. The “effect on whole blood aPTT clotting times” value in the assay with Balb/c mice (1 nM added to whole blood after iv APC 0.5 mg/kg) was “significantly normalized aPTT clotting times”. Besides, in the assay with Balb/c mice (FVa variant added ex vivo to whole blood drawn after APC 0.5 mg/kg injection), the “mean whole blood aPTT” value worked out at 30 s. Further, the “^superFVa concentration at which ETP plateaued” value came out at 10 nM in assay [2] (Patient A, BU=64) and 1.76 µg/mL in assay [2] (patient with BU=64). In assay [2] (setting [5]), the “additional increase of ETP” value was around 3 fold. For the same substance, the “additional increase of peak height” value in assay [2] (setting [5]) is around 3 fold. For the same substance, the ETP restored in assay [4] (ETP maximally suppressed by APC) is given as 90-100%. The “effect on thrombin generation suppressed by APC” value in assay [4] (concentrations where ^superFVa restores) was “fully restored thrombin generation”.
